Data taken from patent publication US11434227B2, “Broad spectrum antibacterial activity of novel bisbenzimidazoles targeting topoisomerase IA and the synergistic composition of bisbenzimidazole with efflux pump inhibitors against pathogenic bacteria” (Jawaharlal Nehru University (JNU), priority 2016, dated 2022).
In brackets after ≈: the same amount, converted by molar mass.

Assays:
[1] = system: Shigella flexineri (MTCC1457); assay: Susceptibility (MIC50/MIC90), broth microdilution; type: cell-based
Enterococcus sp. (2105) = assay: Susceptibility (MIC50/MIC90), broth microdilution
Protocol: (§1) MICs were determined by the broth microdilution method according to CLSI methods (Clinical and Laboratory Standards Institute, 2005). Inoculants were incubated at 37° C. on cation adjusted Mueller Hinton (MH) Broth for 18 to 24 h. Compound were dissolved in media to 10 doubling dilutions from 128 to 0.125 μg/mL. All the bacterial strains were grown in 96 well plate with low evaporation lid (Falcon, Becton Dickinson) in presence of derivatives of benzimidazoles at 0.125, 0.25, 0.5, 1, 2, 4, 8, 16, 32, 64, 128, 256 μg/mL concentrations. […] Plates were read by Tecan Micro-plate Reader at 600 nm.

Enterococcus sp. (1367) = assay: Susceptibility (MIC50/MIC90), broth microdilution
Protocol: as §1

[2] = system: Staphylococcus sp. (1016); assay: Susceptibility (MIC50/MIC90), broth microdilution; conditions: Staphylococcus
Protocol: as §1

Escherichia coli 392 = assay: Susceptibility (MIC50/MIC90), broth microdilution
Protocol: as §1

[3] = system: Acinetobacter baumannii (AB387); assay: Susceptibility (MIC50/MIC90), broth microdilution
Protocol: as §1

[4] = system: Klebsiella planticola (K1164); assay: Susceptibility (MIC50/MIC90), broth microdilution
Protocol: as §1

[5] = system: Klebsiella planticola (K235); assay: Susceptibility (MIC50/MIC90), broth microdilution
Protocol: as §1

[6] = system: Klebsiella planticola (K589); assay: Susceptibility (MIC50/MIC90), broth microdilution
Protocol: as §1

[7] = system: Salmonella typhimurium (St412); assay: Susceptibility (MIC50/MIC90), broth microdilution; conditions: Salmonella enterica
Protocol: as §1

E. coli K12 mutant ΔtolC = assay: Susceptibility of E. coli K12 and mutants (MIC90); conditions: Escherichia coli
Protocol: as §1

E. coli 118^R = assay: Susceptibility (MIC, PAE, MBC), broth microdilution; conditions: Escherichia coli
E. coli 85^R = assay: as above; conditions: Escherichia coli
Protocol: as §1

E. coli 451^R = assay: as above; conditions: Escherichia coli
Protocol: as §1

E. coli 555^R = assay: as above; conditions: Escherichia coli
Protocol: as §1

[8] = system: most of the pathogenic bacterial strains; assay: MIC of HN12b in combination with efflux pump inhibitor; conditions: combination with CCCP and PAβN
Protocol: Briefly, the broth microdilution plates were inoculated with each test organism to yield the appropriate density (10^5 CFU/ml) in 100 μl Mueller-Hinton broth (MHB) and incubated for 24 h at 37° C. in ambient air. One well with no antibiotic was used as a positive growth control on each plate. Plates were read for visual turbidity, and results were recorded after 24 h of incubation at 37° C. in ambient air by using a magnifying mirror reader, as turbidity in wells indicated growth of the microorganism. The MIC was determined as the well in the microtiter plate with the lowest drug concentration at which there was no visible growth. […] MICAB was defined as the MIC of drug A in the presence of drug B; MICBA was defined as the MIC of drug B in the presence of drug A.

E. coli ATCC25922 = assay: HN12b in combination with efflux pump inhibitors (CB method, FICI); conditions: for FICI / Interpretation: E. coli ATCC25922
Protocol: (§2) 96-well microtiter plates containing MIC25 concentrations of the Efflux pump inhibitor (CCCP, PAβN) and HN12b antimicrobial drugs alone and in CB combination were used. The MICs of the individual drugs HN12b, PAβN and CCCP (0.25 to 128 μg/ml) and of the combinations were determined using the broth microdilution technique as recommended by the CLSI. Briefly, the broth microdilution plates were inoculated with each test organism to yield the appropriate density (10^5 CFU/ml) in 100 μl Mueller-Hinton broth (MHB) and incubated for 24 h at 37° C. in ambient air. One well with no antibiotic was used as a positive growth control on each plate. Plates were read for visual turbidity, and results were recorded after 24 h of incubation at 37° C. in ambient air by using a magnifying mirror reader, as turbidity in wells indicated growth of the microorganism. The MIC was determined as the well in the microtiter plate with the lowest drug concentration at which there was no visible growth. […] MICAB was defined as the MIC of drug A in the presence of drug B; MICBA was defined as the MIC of drug B in the presence of drug A.
(§3) The fractional inhibitory concentration index (FICI) was calculated for each antibiotic in each combination by using the following formula: FICA+FICB=FICI, where FICA equals the MIC of drug A in combination divided by the MIC of drug A alone and FICB equals the MIC of drug B in combination divided by the MIC of drug B alone. The FICIs were interpreted as follows: FICI of ≤0.5 will correspond to synergy; FICI of >0.5 to ≤1 will correspond to additivity; FICI of >1 to ≤4 will correspond to no interaction (indifference), and FICI of >4 will correspond antagonism.

E. coli KK45 = assay: as above
Protocol: as §2, §3

P. aeruginosa (Ps 366) = assay: as above
Protocol: as §2, §3

[9] = P. aeruginosa (Ps 366), HN12b + CCCP

With `CCCN1CCN(c2nc3ccc(-c4nc5ccccc5[nH]4)cc3[nH]2)CC1` [HN12b, 2′-(4-propylpiperazine-1-yl)-1H, 3′H-2,5′-bibenzimidazole] the MIC50 [1] was 1.22 µg/mL (≈ 3.38 µM), the MIC90 [1] was 1.22 µg/mL (≈ 3.38 µM) and the MIC50 (Enterococcus sp. (2105)) was 28.4 µg/mL (≈ 78.8 µM). The MIC90 (Enterococcus sp. (2105)) was 128 µg/mL (≈ 355 µM), the MIC50 (Enterococcus sp. (1367)) was < 0.25 µg/mL and the MIC90 (Enterococcus sp. (1367)) was 11.4 µg/mL (≈ 31.5 µM). For the same molecule, the MIC50 [2] was 0.57 µg/mL (≈ 1.58 µM), the MIC90 [2] was 4.57 µg/mL (≈ 12.7 µM) and the MIC50 (Escherichia coli 392) was 17.9 µg/mL (≈ 49.7 µM). For the same molecule, the MIC90 (Escherichia coli 392) was 64.5 µg/mL (≈ 179 µM), the MIC50 [3] was 3.25 µg/mL (≈ 9.02 µM) and the MIC90 [3] was 8 µg/mL (≈ 22.2 µM). It also gave an MIC50 [4] of 34.4 µg/mL (≈ 95.5 µM), an MIC90 [4] of 124 µg/mL (≈ 344 µM) and an MIC50 [5] of 4.52 µg/mL (≈ 12.5 µM). For the same molecule, the MIC90 [5] was 84.5 µg/mL (≈ 234 µM), the MIC50 [6] was 7.4 µg/mL (≈ 20.5 µM) and the MIC90 [6] was 97.4 µg/mL (≈ 270 µM). The MIC50 [7] was < 0.25 µg/mL, the MIC90 [7] was < 0.25 µg/mL and the MIC90 (E. coli K12 mutant ΔtolC) was 0.5 µg/mL (≈ 1.39 µM). For the same molecule, the MBC (E. coli 118^R) was 2 µg/mL (≈ 5.55 µM), the MIC50 (E. coli 118^R) was 1 µg/mL (≈ 2.77 µM) and the MIC90 (E. coli 118^R) was 1.7 µg/mL (≈ 4.72 µM). It also gave an MBC (E. coli 85^R) of 2 µg/mL (≈ 5.55 µM), an MIC50 (E. coli 85^R) of 1 µg/mL (≈ 2.77 µM) and an MIC90 (E. coli 85^R) of 1.7 µg/mL (≈ 4.72 µM). It also gave an MBC (E. coli 451^R) of 2 µg/mL (≈ 5.55 µM), an MIC50 (E. coli 451^R) of 1 µg/mL (≈ 2.77 µM) and an MIC90 (E. coli 451^R) of 1.7 µg/mL (≈ 4.72 µM). The MBC (E. coli 555^R) was 8 µg/mL (≈ 22.2 µM), the MIC50 (E. coli 555^R) was 4 µg/mL (≈ 11.1 µM) and the MIC90 (E. coli 555^R) was 6.8 µg/mL (≈ 18.9 µM). For the same molecule, the “reduction in MIC in combination with efflux pump inhibitor” value [8] was “four to eight fold reduction in MIC”, the FICI (E. coli ATCC25922; HN12b + CCCP) was 0.3 and the Interpretation (E. coli ATCC25922; HN12b + CCCP) was “Synergy (FICI of ≤0.5 will correspond to synergy)”. The FICI (E. coli ATCC25922; HN12b + PAβN) was 0.1, the Interpretation (E. coli ATCC25922; HN12b + PAβN) was “Synergy (FICI of ≤0.5 will correspond to synergy)” and the MIC90 (E. coli ATCC25922; Escherichia coli, ATCC25922) was 14 µg/mL. The FICI (E. coli KK45; E. coli KK45, HN12b + CCCP) was 0.3, the Interpretation (E. coli KK45; E. coli KK45, HN12b + CCCP) was “Synergy (FICI of ≤0.5 will correspond to synergy)” and the FICI (E. coli KK45; E. coli KK45, HN12b + PAβN) was 0.7. For the same molecule, the MIC90 (E. coli KK45; Escherichia coli, KK45) was 16 µg/mL, the FICI (P. aeruginosa (Ps 366); [9]) was 0.6 and the Interpretation (P. aeruginosa (Ps 366); [9]) was “Synergy (FICI of ≤0.5 will correspond to synergy)”. For the same molecule, the FICI (P. aeruginosa (Ps 366); P. aeruginosa (Ps 366), HN12b + PAβN) was 0.9 and the MIC90 (P. aeruginosa (Ps 366); Pseudomonas aeruginosa) was > 128 µg/mL.
